Assay results from article PMC12081876, “Identification of PTGR2 inhibitors as a new therapeutic strategy for diabetes and obesity” (EMBO Molecular Medicine, 2025).
Values joined by “and” are separate entries in the source; they are usually repeats but may differ in a detail not shown here. Equal values may be shown once.

Columns and labels:
[1] = molecular target: T1, murine PPARγ (mPPARγ) (Mus musculus, UniProt P37238); experiment: LC-MS/MS of covalent binding to mPPARγ overexpressed in HEK293T cells; details: HEK293T cells overexpressing mPPARγ
T1 construct: host or cells: HEK293T
Experimental: (§1) HEK293T cells were transfected with murin PPARγ (mPPARγ) and mPPARγ C313A plasmids for immunoprecipitation, which are Myc-DDK-tagged (OriGene, USA). […] According to the manufacturer’s protocol, proteins were immunoprecipitated using Anti-FLAG® M2 Magnetic Beads (2.5 mg/ml; cat. no. F1804, Sigma-Aldrich). Subsequently, the eluted proteins were separated by SDS-PAGE and subjected to immunoblot analysis. Following separation by SDS-PAGE, proteins were stained with Coomassie blue and SYPRO-Ruby stain. The protein bands of interest were cut out for in-gel tryptic digestion followed by C18 Zip-Tip clean-up (Millipore, USA). For proteomic shotgun identifications, nanoLC-nanoESI-MS/MS analysis was performed on a nanoAcquity system (Waters, USA) connected to the LTQ Orbitrap Velos hybrid MS (Thermo Electron, USA) equipped with a PicoView nanospray interface (New Objective, USA). Samples were loaded onto a C18 BEH column (75 μm × 25 cm length, 130 Å, 1.7 μm particle size) (Waters, USA) and separated by a segmented gradient form in 60 min from 5% to 40% acetonitrile (with 0.1% formic acid) at a constant flow rate of 300 nL/min with a column temperature of 35 °C. The mass spectrometer was operated in the data-dependent mode. […] Protein identification and modification were analyzed using Mascot Daemon (Matrix Science Inc., Chicago). […]

[2] = molecular target: T2, Myc-DDK-mPPARγ C313A (Mus musculus, UniProt P37238, C313A); experiment: Reciprocal co-immunoprecipitation in HEK293T cells, mPPARγ C313A; format: binding, murine; details: 15-keto-PGE2 treated
T2 construct: host or cells: HEK293T
Experimental: as §1

[3] = Necropsy, gross and histopathological examination; format: in vivo, mouse; parameters: key to Brain, Forebrain / Brain, Cerebellum and Pons / Heart: Vacuolation, cardiomyocyte / Lung: Alveolar epithelium hyperplasia / Lung: Chronic inflammation, focal / Liver: Hepatocellular adenoma, multiple / Brain, Midbrain / Kidney: Hyaline cast, renal tubule / Kidney: Cytoplasmic vacuolation, renal tubule / Kidney: Mineralization, renal tubule / Pancreas: Atrophy and accumulation adipocyte, acinar cell / Pancreas: Pancreatic islets hyperplasia / Pancreas: Lymphocytic infiltration, perivascular / Brown fat: Increased adipocyte size / White fat (Perigonadal fat) / Bone marrow, Sternum/ Femur / Bone marrow: Mineralization, focal / Bone marrow: Cellularity, decreased, bone marrow: + = Present; - =Not present; X=Not remarkable lesion; 1 = minimal (< 1%); 2 = mild (1–25%); 3 = moderate (26–50%); 4 = moderately severe (51–75%); 5 = severe/high (76–100%); details: for overall toxicity / pathology conclusion: mice treated 26 weeks
Experimental: The animals were sacrificed by exsanguination under anesthesia with pure carbon dioxide.
At necropsy, tissue samples of the submitted mice were collected and preserved in 10% neutral buffered formalin. The required tissues/organs of animals were trimmed, processed, and embedded in paraffin. Sections 3–5 μm in thickness were cut and put on slides for hematoxylin and eosin (H&E) staining. The histopathological evaluation was performed on the submitted tissues. Severity of lesions was graded according to the methods described (Shackelford et al, [2002]). Degrees of lesions were graded histopathologically from one to five depending on severity (1 = minimal; 2 = slight; 3 = moderate; 4 = moderately severe; 5 = severe/high).

[4] = Serum ALT, total bilirubin, BUN and creatinine; format: in vivo, mouse; details: 100 mg/kg/day, vs vehicle
[5] = system: HFHSD-fed obese C57BL6/J mice; experiment: Hepatic steatosis (H&E) and hepatic triglycerides content; format: in vivo, mouse; details: 100 mg/kg/day oral, vs vehicle
Experimental: Tissues were fixed in 4% paraformaldehyde and then embedded in paraffin before sectioning and staining. The stained sections were scanned and analyzed using a MIRAX viewer (http://www.zeiss.de/mirax) and Image J software (http://rsbwed.nih.gov/ij/).
Approximately 80 mg of liver tissue was homogenized in 1800 μl of chloroform/methanol (2/1). Then, 360 μl of H2O was added. The homogenates were centrifuged at 2000 rpm for 10 min. The lower 200-μl layer was added with 100 μl of chloroform with 4% Triton X-100 and dried in a chemical hood. The dried pellet was redissolved with 200 μl of H2O and was determined the triglyceride concentrations with Wako TG LabAssay kit (cat. no. 290-63701, Wako).

[6] = system: F4/80-positive macrophages; experiment: F4/80 immunohistochemical stain of perigonadal fat; format: in vivo, mouse; details: 100 mg/kg/day oral, HFHSD-fed mice, vs vehicle
Experimental: Mice perigonadal fat were paraffin-embedded and the 4-µm tissue sections were cut from the paraffin blocks on the slides by Pathology core of the Institute of Biomedical Sciences, Academia Sinica. The slides were conducted immunochemistry staining using primary antibodies for F4/80 (1:200; cat#H0005972-M01, Abnova) and digitized using an Olympus BX51 microscope combined with an Olympus DP72 camera and CellSens Standard 1.14 software (Olympus, Germany).

[7] = system: HFHSD-fed obese C57BL6/J mice; experiment: Bone mineral density of femur (micro CT); format: in vivo, mouse
[8] = Test group, one animal, 26 weeks
[9] = Test group, one value per animal, 26 weeks

For CCCCCC(=O)/C=C/[C@H]1[C@H](O)CC(=O)[C@@H]1C/C=C\CCCC(=O)O [15-keto-PGE2, 15-keto-prostaglandin E2], the “covalent binding site on mPPARγ (LC-MS/MS)” value [1] was “covalently binds mPPARγ at the Cys313 residue” and the “co-immunoprecipitation with 15-keto-PGE2-cysteine antibody, mPPARγ C313A” value [2] was “not in samples expressing mPPARγ with C313A mutation”.
For Cc1[nH]c2nc(C(C)N3CCN(c4ccccc4)CC3)nn2c(=O)c1Cc1ccc(F)cc1 (stereo not drawn) [BPRPT0245], the “Pathological examination of bone marrow, brain, heart, lung, kidney, pancreas, brown fat, perigonadal fat” value ([3]; 26 weeks, vs vehicle) was “no significant difference”, the “White fat (Perigonadal fat)” value ([3]; Test group, first two animals, 26 weeks) was “X” and the “White fat (Perigonadal fat): Inflammatory cell infiltration” value ([3]; Test group, last two animals, 26 weeks) was 1 (1 = minimal (< 1%)) and 2 (2 = mild (1–25%)). The “Bone marrow: Cellularity, decreased, bone marrow” value [3, 8] was “-”, the “Bone marrow: Infiltration, lymphocyte” value [3, 8] was 1 (1 = minimal (< 1%)) and the “Bone marrow: Mineralization, focal” value [3, 8] was “-”. For the same compound, the “Brain, Forebrain” value ([3]; Test group, one value per animal (T1,T2,T2[sic],T4), 26 weeks) was “X”, the “Brain, Cerebellum and Pons” value [3, 9] was “X” and the “Brain, Midbrain” value [3, 9] was “X”. The “Brown fat: Increased adipocyte size” value [3, 9] was “+”, the “Heart: Inflammatory cell infiltration/Cardiomyopathy” value [3, 9] was 2 (2 = mild (1–25%)) (3×) and 1 (1 = minimal (< 1%)) and the “Heart: Vacuolation, cardiomyocyte” value [3, 9] was “- (3×) and 2 (2 = mild (1–25%))”. The “Kidney: Cytoplasmic vacuolation, renal tubule” value [3, 9] was 2 (2 = mild (1–25%)) (3×) and -, the “Kidney: Hyaline cast, renal tubule” value [3, 9] was 1 (1 = minimal (< 1%)) and - (3×) and the “Kidney: Inflammatory cell infiltration, peripelvic /perivacscular” value [3, 9] was 2 (2 = mild (1–25%)) (3×) and 1 (1 = minimal (< 1%)). For the same compound, the “Kidney: Mineralization, renal tubule” value [3, 9] was 1 (1 = minimal (< 1%)) and - (3×), the “Kidney: Tubular degeneration/regeneration with inflammatory cell infiltration” value [3, 9] was 2 (2 = mild (1–25%)) and the “Liver: Hepatocellular adenoma, multiple” value [3, 9] was “-”. For the same compound, the “Liver: Inflammation” value [3, 9] was 1 (1 = minimal (< 1%)) (2×) and 2 (2 = mild (1–25%)) (2×), the “Liver: Lymphocytic cell infiltration, perivascular” value [3, 9] was 1 (1 = minimal (< 1%)) (2×) and 2 (2 = mild (1–25%)) (2×) and the “Liver: Steatosis” value [3, 9] was 2 (2 = mild (1–25%)) (2×) and 4 (4 = moderately severe (51–75%)) (2×). For the same compound, the “Lung: Alveolar epithelium hyperplasia” value [3, 9] was 2 (2 = mild (1–25%)) and - (3×), the “Lung: Chronic inflammation, focal” value [3, 9] was 1 (1 = minimal (< 1%)) (2×) and - (2×) and the “Lung: Inflammatory cell infiltration, perivascular” value [3, 9] was 1 (1 = minimal (< 1%)) (2×) and 2 (2 = mild (1–25%)) (2×). The “Pancreas: Atrophy and accumulation adipocyte, acinar cell” value [3, 9] was “-”, the “Pancreas: Fat infiltration, exocrine” value [3, 9] was 2 (2 = mild (1–25%)) (2×) and 1 (1 = minimal (< 1%)) (2×) and the “Pancreas: Lymphocytic infiltration, perivascular” value [3, 9] was “- (2×) and 2 (2 = mild (1–25%)) (2×)”. The “Pancreas: Pancreatic islets hyperplasia” value [3, 9] was 1 (1 = minimal (< 1%)) (2×) and - (2×), the “Bone marrow, Sternum/ Femur” value ([3]; Test group, three animals, 26 weeks) was “X” and the “overall toxicity / pathology conclusion” value [3] was “no detectable toxicity”. The “overall toxicity / pathology conclusion” value ([3]; listed as test article) was “not related”, the “serum ALT, total bilirubin, BUN and creatinine levels” value [4] was “no differences” and the “extent of hepatic steatosis” value [5] was “significantly decreased”. The hepatic triglycerides content [5] was “significantly decreased”, the “F4/80-positive macrophages in perigonadal fat” value [6] was “fewer F4/80-positive macrophages” and the Bone mineral density ([7]; 100 mg/kg/day oral, 26 weeks, vs vehicle) was “no difference”. For the same compound, the “Figure 5T value (bone mineral density of femur), individual mice” value ([7]; individual values, BPRPT0245 group (Figure 5T)) was 0.3548 and 0.3423 and 0.3795 and 0.3591 and 0.3711 and 0.3604 and 0.3411 and 0.3634 and 0.3483 and 0.3707.
